Assay [1] addresses T1, human sphingosine-1-phosphate receptor 1 (S1P1) (Homo sapiens, UniProt P21453). The assay is described as follows: Inhibition of cAMP production (HTRF cAMP HiRange), S1P1 CHO-K1 cells. To be noted: for Emax: CHO-K1, efficacy normalized to maximum efficacy of fingolimod, read-out: hS1P1 CAMP SPAN; for EC50: read-out: hS1P1 CAMP pEC50 (converted). Format: cell-based. An outline of the steps:
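CHO-K1 cells co-expressing human S1P1 (C-terminal ProLink tag) and EA-β-arrestin2, plated overnight; after 30 min compound incubation at 37 °C, intracellular cAMP measured by HTRF TR-FRET following 1 h at room temperature. Values normalized to fingolimod.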
Target sequence in this assay (P21453 whole entry): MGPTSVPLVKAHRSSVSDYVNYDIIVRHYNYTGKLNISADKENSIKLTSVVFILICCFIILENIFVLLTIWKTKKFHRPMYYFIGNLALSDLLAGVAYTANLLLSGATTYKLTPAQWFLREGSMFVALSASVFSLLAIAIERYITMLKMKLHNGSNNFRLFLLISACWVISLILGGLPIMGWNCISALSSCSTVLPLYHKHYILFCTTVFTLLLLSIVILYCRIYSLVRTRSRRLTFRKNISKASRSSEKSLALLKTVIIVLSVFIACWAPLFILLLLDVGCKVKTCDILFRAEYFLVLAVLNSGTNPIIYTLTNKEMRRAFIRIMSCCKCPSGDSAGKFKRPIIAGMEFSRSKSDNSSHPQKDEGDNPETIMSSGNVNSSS

Assay [2] addresses T1, human sphingosine-1-phosphate receptor 1 (S1P1). The assay can be described thus: β-Arrestin2 recruitment assay (PathHunter), S1P1 CHO-K1 cells. Format: cell-based. The following applies: for Emax: efficacy normalized to maximum efficacy of fingolimod, read-out: hS1P1 B-arrestin2 SPAN; for EC50: β-arrestin2 recruitment, read-out: hS1P1 B-arrestin2 pEC50 (converted). An outline of the steps:
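CHO-K1 cells co-expressing EA-β-arrestin2 and ProLink-tagged human S1P1 plated overnight, then stimulated 60 min at 37 °C. Enzyme-fragment complementation (β-galactosidase) detected after 1 h at room temperature by luminescence; values normalized to fingolimod.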
Target sequence in this assay (P21453 whole entry): as above
Target sequence in this assay (P32121 whole entry partner): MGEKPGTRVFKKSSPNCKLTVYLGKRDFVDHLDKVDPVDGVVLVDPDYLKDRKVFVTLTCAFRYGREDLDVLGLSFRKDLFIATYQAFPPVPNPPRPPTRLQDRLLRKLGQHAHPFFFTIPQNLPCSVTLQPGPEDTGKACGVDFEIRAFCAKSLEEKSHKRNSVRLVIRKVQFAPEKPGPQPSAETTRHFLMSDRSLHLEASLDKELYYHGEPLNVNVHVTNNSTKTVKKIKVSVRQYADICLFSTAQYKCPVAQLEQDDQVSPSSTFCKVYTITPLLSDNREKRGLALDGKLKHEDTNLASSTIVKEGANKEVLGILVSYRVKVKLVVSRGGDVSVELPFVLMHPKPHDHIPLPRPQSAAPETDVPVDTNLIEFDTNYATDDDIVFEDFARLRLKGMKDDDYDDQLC

Where [3] appears, read: inhibition of cAMP production, S1P1.
Where [4] appears, read: inhibition of cAMP production, potency.
Where [5] appears, read: CHO-K1, β-arrestin2 recruitment.

Turning to `CCC1(CC)CC(=O)c2cc(-c3nc(-c4ccnc(N)c4)no3)ccc2O1` [Compound 513, 6-(3-(2-aminopyridin-4-yl)-1,2,4-oxadiazol-5-yl)-2,2-diethyl-chroman-4-one], the Emax in assay [1] and in assay [2] (CHO-K1) was more than 75% in each case. The EC50 in assay [1] (setting [3]) is less than 0.316 µM; in assay [2] (S1P1), less than 10 µM.
Regarding `Cc1nccnc1-c1nc(-c2ccc3c(c2)nnn3C(C)C)no1` [Compound 44, 3-(1-isopropyl-1H-benzo[d][1,2,3]triazol-5-yl)-5-(3-methylpyrazin-2-yl)-1,2,4-oxadiazole], the Emax in assay [1] (inhibition of cAMP production) and in assay [2] (setting [5]) was less than 75% in each case. For the same molecule, the EC50 was more than 0.316 µM in assay [1] (setting [4]) and more than 10 µM in assay [2] (potency).
For `Cc1nccnc1-c1nc(-c2ccc3c(c2)nnn3CC(C)(C)CO)no1` [Compound 540, 2,2-dimethyl-3-(5-(5-(3-methylpyrazin-2-yl)-1,2,4-oxadiazol-3-yl)-1H-benzo[d] [1,2,3]triazol-1-yl)propan-1-ol], the Emax in assay [1] and in assay [2] (CHO-K1) was less than 75% throughout. Moreover, the results for the EC50 in assay [1] (setting [3]) and in assay [2] (S1P1) were more than 0.316 µM and more than 10 µM, respectively.
As to `CCC1(CC)CC(=O)c2cc(-c3nc(-c4ccc(C)nc4)no3)ccc2O1` [Compound 550, 2,2-diethyl-6-(3-(6-methylpyridin-3-yl)-1,2,4-oxadiazol-5-yl)chroman-4-one], the Emax in assay [1] is more than 75%; in assay [2] (CHO-K1), less than 75%. Further, the values for the EC50 in assay [1] (setting [3]) and in assay [2] (S1P1) were more than 0.316 µM and less than 10 µM, respectively.
In the case of `CC(C)n1nnc2cc(-c3nc(-c4ccc5nonc5c4)no3)ccc21` [Compound 498, 5-{5-[1-(propan-2-yl)-1H-1,2,3-benzotriazol-5-yl]-1,2,4-oxadiazol-3-yl}-2,1,3-benzoxadiazole], the results for the Emax in assay [1] and in assay [2] (CHO-K1) were more than 75% and less than 75%, respectively. The EC50 in assay [1] (setting [3]) was less than 0.316 µM; in assay [2] (S1P1) it was more than 10 µM.
The corresponding values for `CC(C)Nc1ccc(-c2nnc(-c3ccc4c(c3)C(=O)NCC4)o2)cc1C#N` [Compound 638, 5-[5-(1-oxo-1,2,3,4-tetrahydroisoquinolin-7-yl)-1,3,4-oxadiazol-2-yl]-2-[(propan-2-yl)amino]benzonitrile] are less than 75%, less than 75%, less than 0.316 µM and more than 10 µM.
Regarding `CC(C)Oc1ccc(-c2nc(-c3ccc4c(c3)nnn4C(C)C)no2)cc1C(F)(F)F` [Compound 246, 5-(4-isopropoxy-3-(trifluoromethyl)phenyl)-3-(1-isopropyl-1H-benzo[d][1,2,3]triazol-5-yl)-1,2,4-oxadiazole], the Emax in assay [1] (inhibition of cAMP production) and in assay [2] (setting [5]) was more than 75% each time. Moreover, the values for the EC50 in assay [1] (setting [4]) and in assay [2] (potency) were less than 0.316 µM and less than 10 µM, respectively.
For `CCC1(CC)CC(=O)c2cc(-c3nc(-c4ccco4)no3)ccc2O1` [Compound 465, 2,2-diethyl-6-(3-(furan-2-yl)-1,2,4-oxadiazol-5-yl)chroman-4-one], the Emax in assay [1] and in assay [2] (CHO-K1) was more than 75% in each case. The figures for the EC50 in assay [1] (setting [3]) and in assay [2] (S1P1) were less than 0.316 µM and less than 10 µM, respectively.
As for `CC(C)n1nnc2cc(-c3nc(-c4ccccc4O)no3)ccc21` [Compound 180, 2-(5-(1-isopropyl-1H-benzo[d][1,2,3]triazol-5-yl)-1,2,4-oxadiazol-3-yl)phenol], the Emax in assay [1] (inhibition of cAMP production) and in assay [2] (setting [5]) was more than 75% each time. Also, the EC50 in assay [1] (setting [4]) was more than 0.316 µM; in assay [2] (potency), more than 10 µM.
For the molecule `Cc1ccc2nc(-c3ccc4c(c3)nnn4CC(C)C)oc2c1` [Compound 448, 2-(1-isobutyl-1H-benzo[d][1,2,3]triazol-5-yl)-6-methyl-benzo[d]oxazole], the Emax in assay [1] was more than 75%; in assay [2] (CHO-K1) it was less than 75%. The EC50 in assay [1] (setting [3]) was more than 0.316 µM; in assay [2] (S1P1), more than 10 µM.
Regarding `Cc1ccccc1-c1noc(-c2ccc3scnc3c2)n1` [Compound 362, 5-[3-(2-methylphenyl)-1,2,4-oxadiazol-5-yl]-1,3-benzothiazole], the Emax in assay [1] (inhibition of cAMP production) and in assay [2] (setting [5]) was less than 75% in each case. Moreover, the figures for the EC50 in assay [1] (setting [4]) and in assay [2] (potency) were more than 0.316 µM and more than 10 µM, respectively.
As for `CSc1ccccc1-c1nc(-c2ccc3c(c2)nnn3C(C)C)no1` [Compound 276, 3-(1-isopropyl-1H-benzo[d][1,2,3]triazol-5-yl)-5-(2-(methylthio)phenyl)-1,2,4-oxadiazole], the Emax in assay [1] (inhibition of cAMP production) and in assay [2] (setting [5]) was more than 75% throughout. Also, the EC50 in assay [1] (setting [4]) was less than 0.316 µM; in assay [2] (potency) it was less than 10 µM.
Consider `Cc1cc(-c2nc(-c3ccc4c(c3)nnn4C(C)C)no2)cnc1C` [Compound 201, 5-(5,6-dimethyl-pyridin-3-yl)-3-(1-isopropyl-1H-benzo[d][1,2,3]triazol-5-yl)-1,2,4-oxadiazole], for which the Emax in assay [1] (inhibition of cAMP production) was less than 75%; in assay [2] (setting [5]), more than 75%. For the same molecule, the EC50 in assay [1] (setting [4]) is more than 0.316 µM; in assay [2] (potency), more than 10 µM.
Take `COc1cccc(-c2noc(-c3ccc4c(c3)nnn4C(C)C)n2)c1` [Compound 228, 5-(1-isopropyl-1H-benzo[d][1,2,3]triazol-5-yl)-3-(3-methoxy-phenyl)-1,2,4-oxadiazole]: the Emax in assay [1] (inhibition of cAMP production) and in assay [2] (setting [5]) was less than 75% each time. The EC50 is more than 0.316 µM in assay [1] (setting [4]) and more than 10 µM in assay [2] (potency).
Turning to `CC(C)n1ccc2cc(-c3nc(-c4cccc5c4OCCC5)no3)ccc21` [Compound 327, 3-chroman-8-yl-5-(1-isopropylindol-5-yl)-1,2,4-oxadiazole], the Emax in assay [1] (inhibition of cAMP production) was less than 75%; in assay [2] (setting [5]), more than 75%. The values for the EC50 in assay [1] (setting [4]) and in assay [2] (potency) were more than 0.316 µM and less than 10 µM, respectively.
Take `N#Cc1cc(-c2nc(-c3ccc4c(c3)CCC(=O)N4)no2)ccc1NCC(F)(F)F` [Compound 472, 5-[3-(2-oxo-1,2,3,4-tetrahydroquinolin-6-yl)-1,2,4-oxadiazol-5-yl]-2-[(2,2,2-trifluoro-ethyl)amino]benzonitrile]: the Emax in assay [1] and in assay [2] (CHO-K1) was more than 75% each time. The EC50 in assay [1] (setting [3]) is less than 0.316 µM; in assay [2] (S1P1), less than 10 µM.
For `COc1cccc(-c2nc(-c3ccc4c(ccn4C(C)C)c3)ns2)c1` [Compound 366, 5-[5-(3-methoxyphenyl)-1,2,4-thiadiazol-3-yl]-1-(propan-2-yl)-1H-indole], the Emax in assay [1] (inhibition of cAMP production) and in assay [2] (setting [5]) was less than 75% each time. The EC50 in assay [1] (setting [4]) was more than 0.316 µM; in assay [2] (potency) it was more than 10 µM.
On to `O=C1CNc2ccc(-c3nc(-c4cn[nH]c4)no3)cc2N1` [Compound 645, 7-[3-(1H-pyrazol-4-yl)-1,2,4-oxadiazol-5-yl]-1,2,3,4-tetrahydro-quinoxalin-2-one], for which the Emax was more than 75% in assay [1] and less than 75% in assay [2] (CHO-K1). Moreover, the EC50 was more than 0.316 µM in assay [1] (setting [3]) and more than 10 µM in assay [2] (S1P1).
`Cc1ccccc1-c1noc(-c2ccc3c(c2)CCC(=O)N3C)n1` [Compound 367, 1-methyl-6-[3-(2-methyl-phenyl)-1,2,4-oxadiazol-5-yl]-1,2,3,4-tetrahydroquinolin-2-one]: the Emax in assay [1] (inhibition of cAMP production) and in assay [2] (setting [5]) was less than 75% throughout. The EC50 is more than 0.316 µM in assay [1] (setting [4]) and more than 10 µM in assay [2] (potency).
Take `CCC1(CC)CC(=O)c2cc(-c3ncc(-c4ccnc(O)c4)cn3)ccc2O1` [Compound 552, 2,2-diethyl-6-(5-(2-hydroxypyridin-4-yl)pyrimidin-2-yl)chroman-4-one]: the Emax in assay [1] and in assay [2] (CHO-K1) was less than 75% throughout. Further, the EC50 in assay [1] (setting [3]) was more than 0.316 µM; in assay [2] (S1P1), more than 10 µM.
For `CCC1(CC)CC(=O)c2cc(-c3nc(-c4ccccc4OC)ns3)ccc2O1` [Compound 257, 2,2-diethyl-6-(3-(2-methoxyphenyl)-1,2,4-thiadiazol-5-yl)chroman-4-one], the Emax was more than 75% in assay [1] (inhibition of cAMP production) and less than 75% in assay [2] (setting [5]). For the same molecule, the EC50 was more than 0.316 µM in assay [1] (setting [4]) and more than 10 µM in assay [2] (potency).
With `CC(C)n1nnc2cc(-c3noc(C4CCCC4)n3)ccc21` [Compound 278, 5-(5-cyclopentyl-1,2,4-oxadiazol-3-yl)-1-(propan-2-yl)-1H-1,2,3-benzotriazole5-(5-cyclopentyl-1,2,4-oxadiazol-3-yl)-1-(propan-2-yl)-1H-1,2,3-benzotriazole], the Emax in assay [1] (inhibition of cAMP production) and in assay [2] (setting [5]) was less than 75% in each case.
In the case of `COc1ccccc1-c1nc(-c2ccc3c(ccn3C(C)C)c2)ns1` [Compound 375, 5-[5-(2-methoxy-phenyl)-1,2,4-thiadiazol-3-yl]-1-(propan-2-yl)-1H-indole], the Emax in assay [1] is more than 75%; in assay [2] (CHO-K1) it was less than 75%. Further, the EC50 in assay [1] (setting [3]) was less than 0.316 µM; in assay [2] (S1P1), less than 10 µM.
With `CCC1(CC)CC(=O)c2cc(-c3nc(-c4ccsc4)no3)ccc2O1` [Compound 468, 2,2-diethyl-6-(3-(thiophen-3-yl)-1,2,4-oxadiazol-5-yl)chroman-4-one], the Emax in assay [1] and in assay [2] (CHO-K1) was more than 75% throughout. Also, the EC50 is less than 0.316 µM in assay [1] (setting [3]) and less than 10 µM in assay [2] (S1P1).
As for `CC(C)n1nnc2cc(-c3noc(-c4cccc5c4CCC5O)n3)ccc21` (centres unmarked) [Compound 636, 4-{3-[1-(propan-2-yl)-1H-1,2,3-benzotriazol-5-yl]-1,2,4-oxadiazol-5-yl}-2,3-dihydro-1H-inden-1-ol], the Emax in assay [1] and in assay [2] (CHO-K1) was more than 75% each time. Besides, the EC50 in assay [1] (setting [3]) is less than 0.316 µM; in assay [2] (S1P1), less than 10 µM.
